In patent EP0063946A1, “Diagnosis of kidney function” (priority 1981, dated 1982):

How the values were obtained:
[1] = background statement; cited from earlier work
[2] = Animal biodistribution and clearance studies in rats; assay type: in vivo
Experimental: Samples for animal biodistribution studies were administered 1-2 hours post preparation.
Comparative data for Hippuran, Tc-99m TDG and Tc-99m DTPA in rats is set out in Table II.

## O=C(O)CNC(=O)c1ccccc1[131I] [Hippuran, sodium iodohippurate]
[1]
  removed from the blood in a single pass through the kidney: About 80%
[2]
  Clearance half time: 10.4 min
[2]; 30 min p.i.
  % in urine at 30 min p.i.: 82.6%
[2]; 2 hour dissection
  2 hour dissection (% injected dose) Bladder: 93.0 % injected dose
  2 hour dissection (% injected dose) Intestine: 2.5 % injected dose
  2 hour dissection (% injected dose) Kidney: 0.2 % injected dose
  2 hour dissection (% injected dose) Liver: 0.2 % injected dose
